# Results: ChEMBL document CHEMBL1131884, “Dicationic 2-fluorenonylcarbapenems: potent anti-MRS agents with improved solubility and pharmacokinetic properties” (Bioorg Med Chem Lett, 1999)
# Tests used:
# MecA = molecular target: T1, MecA (Staphylococcus aureus, UniProt Q7DHH4); experiment: Binding affinity against PBP2a receptor by competition analysis with [3H]benzylpenicillin using cell membrane fractions from the MRSA COL strain.
# T1 sequence (Q7DHH4 whole entry): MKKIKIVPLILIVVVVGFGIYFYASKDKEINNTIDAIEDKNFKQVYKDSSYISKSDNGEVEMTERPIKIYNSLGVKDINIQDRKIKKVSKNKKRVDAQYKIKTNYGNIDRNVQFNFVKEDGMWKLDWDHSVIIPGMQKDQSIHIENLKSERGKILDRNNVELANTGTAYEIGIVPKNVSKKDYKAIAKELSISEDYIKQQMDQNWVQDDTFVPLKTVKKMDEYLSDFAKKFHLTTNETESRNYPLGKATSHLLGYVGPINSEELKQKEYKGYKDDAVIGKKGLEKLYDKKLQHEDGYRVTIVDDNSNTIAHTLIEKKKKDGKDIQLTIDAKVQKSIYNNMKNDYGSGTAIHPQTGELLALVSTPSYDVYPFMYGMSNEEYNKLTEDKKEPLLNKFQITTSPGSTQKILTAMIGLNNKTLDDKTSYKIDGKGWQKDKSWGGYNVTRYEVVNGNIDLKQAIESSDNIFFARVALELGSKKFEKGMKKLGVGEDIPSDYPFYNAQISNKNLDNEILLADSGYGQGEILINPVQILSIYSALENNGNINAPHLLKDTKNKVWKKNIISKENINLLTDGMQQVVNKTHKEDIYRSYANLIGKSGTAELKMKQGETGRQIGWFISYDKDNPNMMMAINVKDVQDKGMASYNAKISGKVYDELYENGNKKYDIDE
# Staphylococcus sp. = experiment: Antibacterial activity against methicillin-resistant coagulase negative Staphylococci (MRCNS); assay type: functional
# Staphylococcus aureus = experiment: Antibacterial activity against methicillin-resistant Staphylococcus aureus (MRSA); assay type: functional
SMILES,IC50 (MecA) [nM],MIC50 (Staphylococcus sp.) [µg/mL],MIC90 (Staphylococcus sp.) [µg/mL],MIC50 (Staphylococcus aureus) [µg/mL],MIC90 (Staphylococcus aureus) [µg/mL]
C[C@@H](O)[C@H]1C(=O)N2C(C(=O)O)=C(c3ccc4c(c3)-c3ccc(C[N+]56CC[N+](CC(=O)Nc7cccc(C(N)=O)c7)(CC5)CC6)cc3C4=O)[C@H](C)[C@H]12.[Cl-].[Cl-],1220,1,2,1,1
C[C@@H](O)[C@H]1C(=O)N2C(C(=O)O)=C(c3ccc4c(c3)-c3ccc(C[N+]56CC[N+](CC(=O)Nc7ccc(CCO)cc7)(CC5)CC6)cc3C4=O)[C@H](C)[C@H]12.[Cl-].[Cl-],1310,2,4,1,2
CCC[N+]12CC[N+](Cc3ccc4c(c3)C(=O)c3ccc(C5=C(C(=O)O)N6C(=O)[C@H]([C@@H](C)O)[C@H]6C5)cc3-4)(CC1)CC2.[Cl-].[Cl-],456,2,4,2,4
CNC(=O)C[N+]12CC[N+](Cc3ccc4c(c3)C(=O)c3ccc(C5=C(C(=O)O)N6C(=O)[C@H]([C@@H](C)O)[C@H]6[C@H]5C)cc3-4)(CC1)CC2.[Cl-].[Cl-],502,4,8,4,8
C[C@@H](O)[C@H]1C(=O)N2C(C(=O)O)=C(c3ccc4c(c3)-c3ccc(C[N+]56CC[N+](CCCC(N)=O)(CC5)CC6)cc3C4=O)[C@H](C)[C@H]12.[Cl-].[Cl-],2980,4,8,4,4
C[C@@H](O)[C@H]1C(=O)N2C(C(=O)O)=C(c3ccc4c(c3)-c3ccc(C[N+]56CC[N+](CC(=O)NC7CCCC7)(CC5)CC6)cc3C4=O)[C@H](C)[C@H]12.[Cl-].[Cl-],1410,4,8,2,4
C[C@@H](O)[C@H]1C(=O)N2C(C(=O)O)=C(c3ccc4c(c3)-c3ccc(C[N+]56CC[N+](CC(=O)Nc7ccc(O)cc7)(CC5)CC6)cc3C4=O)[C@H](C)[C@H]12.[Cl-].[Cl-],652,1,4,0.5,1
COc1ccc(NC(=O)C[N+]23CC[N+](Cc4ccc5c(c4)C(=O)c4ccc(C6=C(C(=O)O)N7C(=O)[C@H]([C@@H](C)O)[C@H]7[C@H]6C)cc4-5)(CC2)CC3)cc1.[Cl-].[Cl-],1190,1,4,1,1
C[C@@H](O)[C@H]1C(=O)N2C(C(=O)O)=C(c3ccc4c(c3)-c3ccc(C[N+]56CC[N+](CC#N)(CC5)CC6)cc3C4=O)[C@H](C)[C@H]12.[Cl-].[Cl-],464,4,8,2,4
C[C@@H](O)[C@H]1C(=O)N2C(C(=O)O)=C(c3ccc4c(c3)-c3ccc(C[N+]56CC[N+](CC(=O)Nc7ccccc7C#N)(CC5)CC6)cc3C4=O)[C@H](C)[C@H]12.[Cl-].[Cl-],1100,2,4,1,2
C[C@@H](O)[C@H]1C(=O)N2C(C(=O)O)=C(c3ccc4c(c3)-c3ccc(C[N+]56CC[N+](CC#N)(CC5)CC6)cc3C4=O)C[C@H]12.[Cl-].[Cl-],474,2,4,2,4
C[C@@H](O)[C@H]1C(=O)N2C(C(=O)O)=C(c3ccc4c(c3)-c3ccc(C[N+]56CC[N+](Cc7ccccc7)(CC5)CC6)cc3C4=O)[C@H](C)[C@H]12.[Cl-].[Cl-],3250,2,8,1,2
CC[N+]12CC[N+](Cc3ccc4c(c3)C(=O)c3ccc(C5=C(C(=O)O)N6C(=O)[C@H]([C@@H](C)O)[C@H]6C5)cc3-4)(CC1)CC2.[Cl-].[Cl-],416,2,4,2,4
C[C@@H](O)[C@H]1C(=O)N2C(C(=O)O)=C(c3ccc4c(c3)-c3ccc(C[N+]56CC[N+](CC(=O)c7ccccc7)(CC5)CC6)cc3C4=O)[C@H](C)[C@H]12.[Cl-].[Cl-],880,2,4,1,2
C[C@@H](O)[C@H]1C(=O)N2C(C(=O)O)=C(c3ccc4c(c3)-c3ccc(C[N+]56CC[N+](CC(=O)NCc7ccccc7)(CC5)CC6)cc3C4=O)[C@H](C)[C@H]12.[Cl-].[Cl-],1320,1,4,1,2
C[C@@H](O)[C@H]1C(=O)N2C(C(=O)O)=C(c3ccc4c(c3)-c3ccc(C[N+]56CC[N+](CC(=O)c7ccccc7)(CC5)CC6)cc3C4=O)C[C@H]12.[Cl-].[Cl-],,2,4,2,4
C[C@@H](O)[C@H]1C(=O)N2C(C(=O)O)=C(c3ccc4c(c3)-c3ccc(C[N+]56CC[N+](CC(=O)Nc7ccccc7)(CC5)CC6)cc3C4=O)[C@H](C)[C@H]12.[Cl-].[Cl-],1780,2,4,2,2
CCCNC(=O)C[N+]12CC[N+](Cc3ccc4c(c3)C(=O)c3ccc(C5=C(C(=O)O)N6C(=O)[C@H]([C@@H](C)O)[C@H]6[C@H]5C)cc3-4)(CC1)CC2.[Cl-].[Cl-],1230,4,8,2,4
CCC[N+]12CC[N+](Cc3ccc4c(c3)C(=O)c3ccc(C5=C(C(=O)O)N6C(=O)[C@H]([C@@H](C)O)[C@H]6[C@H]5C)cc3-4)(CC1)CC2.[Cl-].[Cl-],907,4,8,4,4
C[C@@H](O)[C@H]1C(=O)N2C(C(=O)O)=C(c3ccc4c(c3)-c3ccc(C[N+]56CC[N+](CC(=O)Nc7ccccn7)(CC5)CC6)cc3C4=O)[C@H](C)[C@H]12.[Cl-].[Cl-],430,2,8,2,4
COC(=O)C[N+]12CC[N+](Cc3ccc4c(c3)C(=O)c3ccc(C5=C(C(=O)O)N6C(=O)[C@H]([C@@H](C)O)[C@H]6C5)cc3-4)(CC1)CC2.[Cl-].[Cl-],,16,16,8,16
C[C@@H](O)[C@H]1C(=O)N2C(C(=O)O)=C(c3ccc4c(c3)-c3ccc(C[N+]56CC[N+](CCCO)(CC5)CC6)cc3C4=O)C[C@H]12.[Cl-].[Cl-],1270,4,4,2,8
C[C@@H](O)[C@H]1C(=O)N2C(C(=O)O)=C(c3ccc4c(c3)-c3ccc(C[N+]56CC[N+](CC(=O)Nc7ccccc7)(CC5)CC6)cc3C4=O)C[C@H]12.[Cl-].[Cl-],468,1,1,0.5,2
C[C@@H](O)[C@H]1C(=O)N2C(C(=O)O)=C(c3ccc4c(c3)-c3ccc(C[N+]56CC[N+](CCCO)(CC5)CC6)cc3C4=O)[C@H](C)[C@H]12.[Cl-].[Cl-],729,4,8,2,4
CC(=O)c1cccc(NC(=O)C[N+]23CC[N+](Cc4ccc5c(c4)C(=O)c4ccc(C6=C(C(=O)O)N7C(=O)[C@H]([C@@H](C)O)[C@H]7[C@H]6C)cc4-5)(CC2)CC3)c1.[Cl-].[Cl-],1290,1,4,1,2
C[C@@H](O)[C@H]1C(=O)N2C(C(=O)O)=C(c3ccc4c(c3)-c3ccc(C[N+]56CC[N+](CC(=O)Nc7ccccc7C(N)=O)(CC5)CC6)cc3C4=O)[C@H](C)[C@H]12.[Cl-].[Cl-],1020,2,8,2,4
C[C@@H](O)[C@H]1C(=O)N2C(C(=O)O)=C(c3ccc4c(c3)-c3ccc(C[N+]56CC[N+](CC(=O)N(C)C)(CC5)CC6)cc3C4=O)C[C@H]12.[Cl-].[Cl-],,4,4,4,4
CNC(=O)C[N+]12CC[N+](Cc3ccc4c(c3)C(=O)c3ccc(C5=C(C(=O)O)N6C(=O)[C@H]([C@@H](C)O)[C@H]6C5)cc3-4)(CC1)CC2.[Cl-].[Cl-],,2,4,2,8
CC(=O)C[N+]12CC[N+](Cc3ccc4c(c3)C(=O)c3ccc(C5=C(C(=O)O)N6C(=O)[C@H]([C@@H](C)O)[C@H]6C5)cc3-4)(CC1)CC2.[Cl-].[Cl-],,4,4,2,8
